Measured values from ChEMBL document CHEMBL1909046, “DrugMatrix in vitro pharmacology data”.

Columns and labels:
[1] = molecular target: T1, 5-hydroxytryptamine receptor 2C (Homo sapiens, UniProt P28335); assay: DRUGMATRIX: Serotonin (5-Hydroxytryptamine) 5-HT2C radioligand binding (ligand: [3H] Mesulergine); format: cell membranes, CHO-K1, Membrane; conditions: cho-k1; Not Active = under 50% inhibition at 10 µM
T1 sequence (P28335 whole entry): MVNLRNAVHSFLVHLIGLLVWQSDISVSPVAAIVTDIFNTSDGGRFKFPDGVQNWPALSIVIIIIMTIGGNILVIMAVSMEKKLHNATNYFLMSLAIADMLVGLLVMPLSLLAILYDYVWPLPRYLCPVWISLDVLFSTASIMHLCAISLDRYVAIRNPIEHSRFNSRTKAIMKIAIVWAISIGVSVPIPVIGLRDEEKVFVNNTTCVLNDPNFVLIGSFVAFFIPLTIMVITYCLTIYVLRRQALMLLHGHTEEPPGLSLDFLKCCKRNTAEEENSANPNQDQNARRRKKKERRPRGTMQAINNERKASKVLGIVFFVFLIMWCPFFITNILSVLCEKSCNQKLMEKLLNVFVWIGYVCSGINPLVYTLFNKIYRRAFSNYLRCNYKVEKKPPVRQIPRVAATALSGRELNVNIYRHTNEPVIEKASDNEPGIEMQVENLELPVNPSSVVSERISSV

[2] = DRUGMATRIX: Glutamate, AMPA radioligand binding (ligand: [3H] AMPA); format: cell membranes, Rattus norvegicus, Wistar, Cerebral cortex, Membrane; conditions: Not Active = under 50% inhibition at 10 µM
[3] = molecular target: T2, Cysteinyl leukotriene receptor 1 (Homo sapiens, UniProt Q9Y271); format: cell membranes, Membrane; conditions: cho-k1; also: in other assays of this panel Not Active means under 50% inhibition at 10 µM
T2 sequence (Q9Y271 whole entry): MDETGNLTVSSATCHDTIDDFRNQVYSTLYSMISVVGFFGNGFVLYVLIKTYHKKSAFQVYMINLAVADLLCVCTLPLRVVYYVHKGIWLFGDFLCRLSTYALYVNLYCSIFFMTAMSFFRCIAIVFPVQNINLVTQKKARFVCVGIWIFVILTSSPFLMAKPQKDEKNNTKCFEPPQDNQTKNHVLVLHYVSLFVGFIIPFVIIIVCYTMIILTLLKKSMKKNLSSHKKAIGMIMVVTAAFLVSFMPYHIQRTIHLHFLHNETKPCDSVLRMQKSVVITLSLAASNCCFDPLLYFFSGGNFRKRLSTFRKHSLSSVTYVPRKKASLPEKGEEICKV

[4] = DRUGMATRIX: Nicotinic Acetylcholine radioligand binding (ligand: [125I] Epibatidine); format: cell membranes, Membrane; conditions: imr-32; Not Active = under 50% inhibition at 10 µM
[5] = molecular target: Mitogen-activated protein kinase 14 (Homo sapiens, UniProt Q16539); design: species or system Escherichia coli;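 also: inhibition of p38alpha enzyme activity in a biochemical kinase assay, with myelin basic protein serving as substrate; in other assays of this panel Not Active means under 50% inhibition at 10 µM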
Mitogen-activated protein kinase 14, sequence (Q16539 whole entry): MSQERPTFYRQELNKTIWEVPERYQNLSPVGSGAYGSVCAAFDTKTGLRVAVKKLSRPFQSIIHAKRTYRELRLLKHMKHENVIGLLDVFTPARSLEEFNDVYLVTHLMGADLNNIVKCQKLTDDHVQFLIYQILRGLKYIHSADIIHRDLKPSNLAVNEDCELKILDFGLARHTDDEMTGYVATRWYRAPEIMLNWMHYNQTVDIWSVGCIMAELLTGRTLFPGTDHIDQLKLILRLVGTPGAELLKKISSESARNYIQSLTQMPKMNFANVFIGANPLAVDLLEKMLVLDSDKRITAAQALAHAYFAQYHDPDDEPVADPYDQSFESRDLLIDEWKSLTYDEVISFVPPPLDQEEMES

Cytochrome P450 2D6 = Cytochrome P450 2D6 (Homo sapiens, UniProt P10635); conditions: bti-tn-5b1-4; also: in other assays of this panel Not Active means under 50% inhibition at 10 µM
Cytochrome P450 2D6, sequence (P10635 whole entry): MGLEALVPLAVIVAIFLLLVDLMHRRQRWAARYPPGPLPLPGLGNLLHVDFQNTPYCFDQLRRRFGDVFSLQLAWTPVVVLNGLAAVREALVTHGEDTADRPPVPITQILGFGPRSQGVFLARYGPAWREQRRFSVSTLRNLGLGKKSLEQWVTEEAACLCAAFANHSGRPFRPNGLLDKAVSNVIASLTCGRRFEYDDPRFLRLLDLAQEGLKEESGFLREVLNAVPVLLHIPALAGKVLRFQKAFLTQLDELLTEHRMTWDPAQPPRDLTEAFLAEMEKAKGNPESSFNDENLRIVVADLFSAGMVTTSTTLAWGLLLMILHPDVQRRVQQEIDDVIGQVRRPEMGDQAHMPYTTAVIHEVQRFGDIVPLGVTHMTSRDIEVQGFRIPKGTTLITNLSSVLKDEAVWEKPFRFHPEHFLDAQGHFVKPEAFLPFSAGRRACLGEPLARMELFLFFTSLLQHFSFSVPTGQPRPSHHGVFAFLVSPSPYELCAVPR

COc1ccc2[nH]cc(CCNC(C)=O)c2c1 [MELATONIN]
Not Active: IC50 [1] | IC50 [2] | Ki [2] | IC50 [3] | IC50 [4] | Ki [4] | IC50 [5] | IC50 (Cytochrome P450 2D6) | Ki (Cytochrome P450 2D6)

NC(=O)C[S+]([O-])C(c1ccccc1)c1ccccc1 (centres undefined) [MODAFINIL]
Not Active: IC50 [1] | IC50 [2] | Ki [2] | IC50 [3] | IC50 [4] | Ki [4] | IC50 [5] | IC50 (Cytochrome P450 2D6) | Ki (Cytochrome P450 2D6)

CCN(CC)CCOCCC1=CCC2CC1C2(C)C (centres undefined) [MYRTECAINE]
Not Active: IC50 [1] | IC50 [2] | Ki [2] | IC50 [3] | IC50 [4] | Ki [4] | IC50 [5] | IC50 (Cytochrome P450 2D6) | Ki (Cytochrome P450 2D6)

O=C(O)c1cccnc1Nc1cccc(C(F)(F)F)c1 [NIFLUMIC ACID]
Not Active: IC50 [1] | IC50 [2] | Ki [2] | IC50 [3] | IC50 [4] | Ki [4] | IC50 [5] | IC50 (Cytochrome P450 2D6) | Ki (Cytochrome P450 2D6)

O=C(N/N=C/c1ccc([N+](=O)[O-])o1)c1cc([N+](=O)[O-])cc([N+](=O)[O-])c1O [NIFURSOL]
Not Active: IC50 [1] | IC50 [2] | Ki [2] | IC50 [3] | IC50 [4] | Ki [4] | IC50 [5] | IC50 (Cytochrome P450 2D6) | Ki (Cytochrome P450 2D6)

COC(=O)Nc1nc2ccc(C(=O)c3cccs3)cc2[nH]1 [NOCODAZOLE]
Not Active: IC50 [1] | IC50 [2] | Ki [2] | IC50 [3] | IC50 [4] | Ki [4] | IC50 [5] | IC50 (Cytochrome P450 2D6) | Ki (Cytochrome P450 2D6)

C#CC1(O)CC[C@H]2[C@@H]3CCC4=CC(=O)CC[C@@H]4[C@H]3CC[C@@]21CC (some centres undefined) [NORGESTREL]
Not Active: IC50 [1] | IC50 [2] | Ki [2] | IC50 [3] | IC50 [4] | Ki [4] | IC50 [5] | IC50 (Cytochrome P450 2D6) | Ki (Cytochrome P450 2D6)

COC(=O)Nc1nc2ccc([S+]([O-])c3ccccc3)cc2[nH]1 (centres undefined) [OXFENDAZOLE]
Not Active: IC50 [1] | IC50 [2] | Ki [2] | IC50 [3] | IC50 [4] | Ki [4] | IC50 [5] | IC50 (Cytochrome P450 2D6) | Ki (Cytochrome P450 2D6)

CC(=O)O[C@H]1C(=O)[C@@]2(C)[C@H]([C@H](OC(=O)c3ccccc3)[C@]3(O)C[C@H](OC(=O)[C@H](O)[C@@H](NC(=O)c4ccccc4)c4ccccc4)C(C)=C1C3(C)C)[C@]1(OC(C)=O)CO[C@@H]1C[C@@H]2O [PACLITAXEL]
Not Active: IC50 [1] | IC50 [2] | Ki [2] | IC50 [3] | IC50 [4] | Ki [4] | IC50 [5] | IC50 (Cytochrome P450 2D6) | Ki (Cytochrome P450 2D6)

C[n+]1ccc(-c2cc[n+](C)cc2)cc1.[Cl-].[Cl-] [PARAQUAT DICHLORIDE]
Not Active: IC50 [1] | IC50 [2] | Ki [2] | IC50 [3] | IC50 [4] | Ki [4] | IC50 [5] | IC50 (Cytochrome P450 2D6) | Ki (Cytochrome P450 2D6)

CCn1cc(C(=O)O)c(=O)c2cnc(N3CCCC3)nc21 [PIROMIDIC ACID]
Not Active: IC50 [1] | IC50 [2] | Ki [2] | IC50 [3] | IC50 [4] | Ki [4] | IC50 [5] | IC50 (Cytochrome P450 2D6) | Ki (Cytochrome P450 2D6)

C[n+]1ccccc1/C=N/O.[Cl-] [PRALIDOXIME CHLORIDE]
Not Active: IC50 [1] | IC50 [2] | Ki [2] | IC50 [3] | IC50 [4] | Ki [4] | IC50 [5] | IC50 (Cytochrome P450 2D6) | Ki (Cytochrome P450 2D6)

COc1cc2nc(N3CCN(C(=O)c4ccco4)CC3)nc(N)c2cc1OC [PRAZOSIN]
Not Active: IC50 [1] | IC50 [2] | Ki [2] | IC50 [3] | IC50 [4] | Ki [4] | IC50 [5] | IC50 (Cytochrome P450 2D6) | Ki (Cytochrome P450 2D6)

C[C@]12C=CC(=O)C=C1CC[C@@H]1[C@@H]2[C@@H](O)C[C@@]2(C)[C@H]1CC[C@]2(O)C(=O)CO [PREDNISOLONE]
Not Active: IC50 [1] | IC50 [2] | Ki [2] | IC50 [3] | IC50 [4] | Ki [4] | IC50 [5] | IC50 (Cytochrome P450 2D6) | Ki (Cytochrome P450 2D6)

CC(=O)[C@H]1[C@H](C#N)C[C@H]2[C@@H]3CC=C4C[C@@H](O)CC[C@]4(C)[C@H]3CC[C@@]21C [PREGNENOLONE CARBONITRILE]
Not Active: IC50 [1] | IC50 [2] | Ki [2] | IC50 [3] | IC50 [4] | Ki [4] | IC50 [5] | IC50 (Cytochrome P450 2D6) | Ki (Cytochrome P450 2D6)

CCCN(CCC)S(=O)(=O)c1ccc(C(=O)O)cc1 [PROBENECID]
Not Active: IC50 [1] | IC50 [2] | Ki [2] | IC50 [3] | IC50 [4] | Ki [4] | IC50 [5] | IC50 (Cytochrome P450 2D6) | Ki (Cytochrome P450 2D6)
